The results in this text go back to the supplement of paper PMC7295968.

Experiment [1] concerns THP-1 (vitamin D3 differentiated). Nature of the experiment: EC50 of beta-agonist gene-signature score cos_weight_AC (signature01). The following applies: 4 h. The method, then: (§1)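 Vitamin-D3-differentiated THP-1 cells were treated 4 h with compounds (1:10 serial dilutions, top 100 uM). Two 8-gene QuantiGene Plex signatures were read out as TBP-normalised rscores; the cos_weight_AC signature score (% of 10 uM isoproterenol active control) was fitted by 4PL/nonparametric fit to give EC50, with constant fits assigned one log unit outside the tested range. cAMP EC50s come from a 20 min HTRF assay with IBMX at 37 °C, fitted with the same algorithm.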

Experiment [2] has the same test system. Nature of the experiment: cAMP EC50 (HTRF); higher = lower potency. The following applies: 20 min. Here is the method: as §1
For orientation: In TR-FRET formats the signal depends on donor and acceptor labels being close together.

Experiment [3] has the same test system. Nature of the experiment: EC50 of beta-agonist gene-signature score cos_weight_AC (signature02). The following applies: 4 h. The method, then:
as §1

± gives the standard deviation of the averaged measurements. Where only a bound is given, the exact number is not on record here.

As usually defined, the EC50 is the concentration at which the effect is half-maximal. Regarding `CC(Cc1ccc(OCC(=O)O)cc1)NCC(O)c1cccc(Cl)c1` (centres undefined), the EC50 in experiment [1] was 421 nM; in experiment [3] it was 167 nM. Moreover, in experiment [2], the “cAMP EC50” value came out at 50.1 ± 31 nM.

For `Cn1cc(C(F)(F)F)nc1-c1ccc(OCC(O)CNCCOc2ccc(O)c(C(N)=O)c2)cc1` (centres undefined), the 50% effective concentration (EC50) in experiment [1] and in experiment [3] was above 100000 nM in each case. The “cAMP EC50” value in experiment [2] is above 100000 nM.

Regarding `O=c1ccc2c([C@@H](O)CNCCCCCCOCC(F)(F)c3ccccc3)ccc(O)c2[nH]1` [Abediterol], the concentration giving a half-maximal response (EC50) in experiment [1] and in experiment [3] was below 0.01 nM throughout. For the same compound, the “cAMP EC50” value in experiment [2] is below 0.01 nM.

As for `CNC[C@H](O)c1ccc(O)c(O)c1` [Adrenaline], the 50% effective concentration (EC50) in experiment [1] is 64.7 nM; in experiment [3], 68.1 nM.

In experiment [1], `COc1cc(NC(=O)CCN2CCC(OC(=O)Nc3ccccc3-c3ccccc3)CC2)c(Cl)cc1CNC[C@H](O)c1ccc(O)c2[nH]c(=O)ccc12` [Batefenterol] gave a concentration giving a half-maximal response (EC50) of 0.265 nM.

For the compound `CC(CCc1ccc(O)cc1)NCCc1ccc(O)c(O)c1` (centres undefined) [Dobutamine], in experiment [1], the concentration giving a half-maximal response (EC50) came out at 8.15 nM. Moreover, the “cAMP EC50” value in experiment [2] amounted to 1.38 ± 0.91 nM.

As to `Oc1ccc(CCNCCCCCCNCCc2ccccc2)cc1O` [Dopexamine], in experiment [2], the “cAMP EC50” value came out at 13900 ± 12000 nM.

Take `CC(Cc1ccc(O)cc1)NCC(O)c1cc(O)cc(O)c1` (centres undefined) [Fenoterol]: the results for the 50% effective concentration (EC50) in experiment [1] and in experiment [3] were 8.21 nM and 3.65 nM, respectively. Also, in experiment [2], the “cAMP EC50” value is 1.75 ± 1.5 nM.

Take `COc1ccc(CC(C)NCC(O)c2ccc(O)c(NC=O)c2)cc1` (centres undefined) [Formoterol]: the results for the EC50 in experiment [1] and in experiment [3] were 0.254 nM and 0.108 nM, respectively. Besides, in experiment [2], the “cAMP EC50” value turned out to be 0.0101 nM.

Take `C=C[C@@]1(C)CC(=O)[C@]2(O)[C@@]3(C)[C@@H](O)CCC(C)(C)[C@@H]3[C@H](O)[C@H](OC(C)=O)[C@@]2(C)O1` [Forskolin]: the 50% effective concentration (EC50) in experiment [1] amounted to 2770 nM; in experiment [3] it was 2310 nM.

Consider `CCC(NC(C)C)C(O)c1ccc(O)c(O)c1` (centres undefined) [Isoetharine], for which the concentration giving a half-maximal response (EC50) in experiment [1] was found to be 32.1 nM; in experiment [3], 48.4 nM.

The compound `CC(C)NCC(O)c1cc(O)cc(O)c1` (centres undefined) [Metaproterenol] came in with an EC50 in experiment [1] of 21.6 nM. Also, the “cAMP EC50” value in experiment [2] came out at 5.17 ± 2.3 nM.

For `CNCCc1cnc[nH]1` [N-alpha-methylhistamine], the values for the EC50 in experiment [1] and in experiment [3] were 248 nM and 234 nM, respectively. Moreover, the “cAMP EC50” value in experiment [2] is 180 ± 26 nM.

On to `NC[C@H](O)c1ccc(O)c(O)c1` [Norepinephrine], for which the EC50 in experiment [1] is 1.46 nM; in experiment [3], 6.13 nM. Moreover, in experiment [2], the “cAMP EC50” value is 0.42 ± 0.14 nM.

Turning to `COc1ccc(CC(C)(C)NC[C@H](O)c2cc(O)cc3c2OCC(=O)N3)cc1` [Olodaterol], the values for the half-maximal effective concentration (EC50) in experiment [1] and in experiment [3] were 2.88 nM and 0.127 nM, respectively.

In the case of `CCC(NC(C)C)C(O)c1ccc(O)c2[nH]c(=O)ccc12` (centres undefined) [Procaterol], the EC50 in experiment [3] was 0.703 nM.

As to `CC(NCCc1ccc(O)cc1)C(O)c1ccc(O)cc1` (centres undefined) [Ritodrine], the EC50 was found to be 295 nM in experiment [1] and 294 nM in experiment [3]. In experiment [2], the “cAMP EC50” value came out at 624 ± 160 nM.

Take `CC(C)(C)NCC(O)c1ccc(O)c(CO)c1` (centres undefined) [Salbutamol]: the EC50 was 98.5 nM in experiment [1] and 64.6 nM in experiment [3]. Besides, the “cAMP EC50” value in experiment [2] was determined as 10.6 ± 9.1 nM.

Turning to `CC(C)(C)NCC(O)c1cc(O)cc(O)c1` (centres undefined) [Terbutaline], the EC50 worked out at 216 nM in experiment [1] and 230 nM in experiment [3]. Further, the “cAMP EC50” value in experiment [2] came to 349 ± 260 nM.

The compound `COc1cc(C[C@@H]2NCCc3cc(O)c(O)cc32)cc(OC)c1OC` [Tretoquinol] returned an EC50 in experiment [1] of 0.237 nM.

Turning to `CC(C)(C)NCC(O)c1ccccc1Cl` (centres undefined) [Tulobuterol], the “cAMP EC50” value in experiment [2] turned out to be 32.1 ± 20 nM. In experiment [3], this compound returned an EC50 of 215 nM.

As for `OCc1cc([C@@H](O)CNCCCCCCOCCOCc2c(Cl)cccc2Cl)ccc1O` [Vilanterol], the concentration for a half-maximal effect (EC50) in experiment [1] came to 5.65 nM; in experiment [3], 5.86 nM. Also, the “cAMP EC50” value in experiment [2] is below 0.01 nM.

With `CC(C)(Cc1ccccc1)NCC(O)c1ccc(O)c(NS(C)(=O)=O)c1` (centres undefined) [Zinterol], the EC50 turned out to be 3.48 nM in experiment [1] and 0.567 nM in experiment [3]. Further, the “cAMP EC50” value in experiment [2] was below 0.01 nM.
